Results published in US20120232062A1, “AZAINDAZOLES TO TREAT FLAVIVIRIDAE VIRUS INFECTION” (EIGER BIOPHARMACEUTICALS, INC., priority 2009, published 2012).
Read-outs that look alike come from different tables or passages of the source.

Key:
[1] = In vivo rat pharmacokinetic studies; settings: for concentration in liver, fold above the EC50: rat liver after PO 20 or 40 mpk, for qd dosing
Excerpt: In vivo rat pharmacokinetic studies are designed to measure bioavailability, tissue distribution and metabolite identification in rats after intravenous (IV) and oral (PO) dosing. A full PK study typically includes two study arms (IV and PO) and takes serial blood samples from multiple animals per compound. The assay as described in this example was developed by BioDuro, a corporation of China with its principal office located at Building E, No. 29 Life Science Park Road, Changping District, Beijing, 102206, P.R. China.
Each compound was singly dosed both IV (1 mpk (mg/kg) to rats 1-3) and PO (20 or 40 mpk to rats 4-18), followed by blood draws and liver concentration studies (for PO dosed rats) from each animal at each time point.

CYP 2D6 = target: T1, CYP 2D6 (Homo sapiens, UniProt P10635); test: CYP inhibition testing, CYP 2D6; type: in vitro ADME; settings: human liver microsomes; >75 = low level of inhibition
T1 construct: For human liver microsome solution, a stock solution (20 mg/mL (4×final)) is used; from tissue; host or cells: human liver microsomes
T1 sequence (P10635 whole entry): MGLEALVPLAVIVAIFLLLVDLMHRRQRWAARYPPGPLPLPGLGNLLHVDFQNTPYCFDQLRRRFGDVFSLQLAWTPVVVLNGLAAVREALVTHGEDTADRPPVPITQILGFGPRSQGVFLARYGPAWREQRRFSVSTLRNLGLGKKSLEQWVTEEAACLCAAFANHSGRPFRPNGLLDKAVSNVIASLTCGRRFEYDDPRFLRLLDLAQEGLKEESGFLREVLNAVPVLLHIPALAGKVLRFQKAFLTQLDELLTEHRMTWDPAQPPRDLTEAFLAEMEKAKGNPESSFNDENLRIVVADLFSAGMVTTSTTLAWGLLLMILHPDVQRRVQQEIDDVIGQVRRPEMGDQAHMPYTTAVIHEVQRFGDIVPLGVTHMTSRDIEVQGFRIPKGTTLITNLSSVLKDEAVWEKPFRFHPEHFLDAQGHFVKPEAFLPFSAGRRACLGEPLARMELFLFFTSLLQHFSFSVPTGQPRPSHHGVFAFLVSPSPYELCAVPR
Experimental: (§1) Select compounds are tested for CYP inhibition against five different CYP enzymes: CYP 1A2, CYP 2C9, CYP 2C19, CYP 2D6, CYP 3A4. Individual CYP enzymes are incubated with corresponding substrates with no inhibitor (negative control). Individual CYP enzymes are then incubated with corresponding substrates in the presence of test compound. […] Values of 70>v, w, x, y, z>30 indicate moderate level of inhibition of the corresponding enzyme.
(§2) The following reagents are used: Sodium Phosphate, monobasic; Sodium Phosphate, dibasic; β-Nicotinamide Adenine Dinucleotide Phosphate-Reduced (NADPH), Roche; Milli-Q Water; 0.1 M Potassium phosphate buffer (K-buffer), pH 7.4. The following stock solutions are used. Stock A (136.5 g of monobasic potassium phosphate in 1 L of Milli-Q water (1.0 M)). Stock B (174.2 g of dibasic potassium phosphate in 1 L of Milli-Q water (1.0 M)). 40.5 mL of Stock B is mixed with 9.5 mL of Stock A, and the total volume brought near 500 mL with Milli-Q water to give 0.1 M potassium phosphate buffer. The buffer is titrated with KOH or H3PO4 to pH 7.4. To prepare a cofactor buffer (4×, 8 mM NADPH), 66.7 mg of NADPH tetrasodium salt is dissolved in 10 mL of K-buffer. For human liver microsome solution, a stock solution (20 mg/mL (4×final)) is used.
(§3) The following Positive control stock solutions are prepared: 0.3 mM α-Naphthoflavone (MW: 272.3, 0.0817 mg of α-Naphthoflavone in 1 mL DMSO), 10 mM Sulfaphenazole (MW: 314.4, 3.14 mg of sulfaphenazole in 1 mL DMSO) 100 mM Omeprazole (MW: 345.4, 34.54 mg of omeprazole in 1 mL DMSO), 2.5 mM Quinidine (MW: 324, 0.81 mg of quinidine in 1 mL DMSO), and 2.5 mM Ketoconazole (MW: 531.4, 1.33 mg of ketoconazole in 1 mL DMSO).
(§4) The following substrate stock solutions are prepared: 6 mM Phenacetin (MW: 179.22, 1.075 mg of phenacetin in 1 mL can), 10 mM Diclofenac (MW: 318.83, 3.18 mg of Diclofenac in 1 ml H2O), 35 mM S-Mephenyloin (MW: 218.25, 7.64 mg of s-mephenyloin in 1 mL ACN 10 mM Bufuralol (MW: 297.82, 2.98 mg of Bufuralol in 1 ml H2O), 1 mM Midazolam (MW: 325.77, 0.326 mg of midazolam in 1 mL can), and 10 mM Testosterone (MW: 288.42, 2.88 mg of Testosterone in 1 ml ACN.
(§5) Test compounds and reference compounds (positive control) are prepared in 0.2 mg/ml liver microsome solution. A 0.2 mg/ml liver microsome solution (2×final) is prepared from stock solution by adding 10 μL microsome stock solutions (20 mg/ml) in 990 μL K-buffer. 8 μL of 10 mM test compound stock solution (in DMSO or other solvent at various concentrations) is diluted with 12 μL ACN to make 4 mM solutions. 1:3 serial dilutions are performed using DMSO/ACN (40:60) from 4 mM solution further down seven concentration points (400×final): 4 mM, 1.33 mM, 0.44 mM, 0.148 mM, […], 0.0165 mM, 0.00549 mM, 0 mM. […]

CYP 3A4 = target: T2, CYP 3A4 (Homo sapiens, UniProt P08684); test: CYP inhibition testing, CYP 3A4; type: in vitro ADME; settings: human liver microsomes; >75 = low level of inhibition
T2 construct: For human liver microsome solution, a stock solution (20 mg/mL (4×final)) is used; from tissue; host or cells: human liver microsomes
T2 sequence (P08684 whole entry): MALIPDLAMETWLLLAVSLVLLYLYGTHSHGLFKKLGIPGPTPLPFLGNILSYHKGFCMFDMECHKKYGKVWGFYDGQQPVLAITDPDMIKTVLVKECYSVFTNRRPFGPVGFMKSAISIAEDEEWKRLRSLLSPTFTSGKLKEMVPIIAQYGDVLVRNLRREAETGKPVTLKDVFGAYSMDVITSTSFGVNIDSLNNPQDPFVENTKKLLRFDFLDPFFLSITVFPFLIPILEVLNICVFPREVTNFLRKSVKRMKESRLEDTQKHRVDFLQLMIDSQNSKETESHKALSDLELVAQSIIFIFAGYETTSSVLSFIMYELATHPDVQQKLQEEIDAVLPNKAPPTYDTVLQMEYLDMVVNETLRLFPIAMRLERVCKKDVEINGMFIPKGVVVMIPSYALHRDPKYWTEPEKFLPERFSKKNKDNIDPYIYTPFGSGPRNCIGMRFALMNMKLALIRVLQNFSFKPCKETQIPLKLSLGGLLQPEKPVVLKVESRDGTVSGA
Experimental: as §1, §2, §3, §4, §5

CYP 2C19 = target: T3, CYP 2C19 (Homo sapiens, UniProt P33261); test: CYP inhibition testing, CYP 2C19; type: in vitro ADME; settings: human liver microsomes; >75 = low level of inhibition
T3 construct: For human liver microsome solution, a stock solution (20 mg/mL (4×final)) is used; from tissue; host or cells: human liver microsomes
T3 sequence (P33261 whole entry): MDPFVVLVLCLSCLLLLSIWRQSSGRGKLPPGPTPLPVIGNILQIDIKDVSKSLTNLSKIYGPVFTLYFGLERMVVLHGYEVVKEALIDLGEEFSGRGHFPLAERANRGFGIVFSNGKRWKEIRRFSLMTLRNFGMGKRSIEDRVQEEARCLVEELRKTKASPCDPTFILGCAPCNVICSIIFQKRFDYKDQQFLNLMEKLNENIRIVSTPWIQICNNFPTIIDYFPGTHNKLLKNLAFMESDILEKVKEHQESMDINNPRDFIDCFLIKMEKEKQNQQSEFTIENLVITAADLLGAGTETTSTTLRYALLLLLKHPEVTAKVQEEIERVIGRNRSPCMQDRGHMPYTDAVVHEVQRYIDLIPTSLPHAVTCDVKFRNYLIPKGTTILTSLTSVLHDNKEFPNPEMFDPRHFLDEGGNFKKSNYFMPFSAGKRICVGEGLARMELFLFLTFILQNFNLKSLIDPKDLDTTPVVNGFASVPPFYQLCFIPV
Experimental: as §1, §2, §3, §4, §5

CYP 2C9 = target: T4, CYP 2C9 (Homo sapiens, UniProt P11712); test: CYP inhibition testing, CYP 2C9; type: in vitro ADME; settings: human liver microsomes; >75 = low level of inhibition
T4 construct: For human liver microsome solution, a stock solution (20 mg/mL (4×final)) is used; from tissue; host or cells: human liver microsomes
T4 sequence (P11712 whole entry): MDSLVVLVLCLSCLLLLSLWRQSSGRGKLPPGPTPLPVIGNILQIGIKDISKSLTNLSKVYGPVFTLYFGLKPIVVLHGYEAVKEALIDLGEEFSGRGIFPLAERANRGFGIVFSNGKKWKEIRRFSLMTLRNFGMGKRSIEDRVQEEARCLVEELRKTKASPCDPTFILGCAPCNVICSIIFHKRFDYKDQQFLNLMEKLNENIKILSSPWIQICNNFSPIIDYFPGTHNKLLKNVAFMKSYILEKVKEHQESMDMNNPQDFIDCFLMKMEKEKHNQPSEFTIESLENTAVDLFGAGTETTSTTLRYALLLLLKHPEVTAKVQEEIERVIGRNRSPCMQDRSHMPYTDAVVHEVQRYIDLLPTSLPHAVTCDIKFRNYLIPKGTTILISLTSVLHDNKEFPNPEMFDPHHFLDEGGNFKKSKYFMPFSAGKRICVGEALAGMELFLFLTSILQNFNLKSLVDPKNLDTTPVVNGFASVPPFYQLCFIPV
Experimental: as §1, §2, §3, §4, §5

[2] = 20 mg/kg, rat, PO 20 mpk, liver/plasma, read-out: L/P Ratio
[3] = liver, 20 mg/kg, rat, PO 20 mpk, read-out: Liver
[4] = plasma, 20 mg/kg, rat, PO 20 mpk vs IV 1 mpk
[5] = plasma, 20 mg/kg, rat, PO 20 mpk, read-out: Plasma
[6] = 40 mg/kg, rat, PO 40 mpk, liver/plasma, read-out: L/P Ratio
[7] = liver, 40 mg/kg, rat, PO 40 mpk, read-out: Liver
[8] = plasma, 40 mg/kg, rat, PO 40 mpk, read-out: Plasma

| SMILES | Kp at 0.25 h [1, 2] | Kp at 1 h [1, 2] | concentration at 0.25 h [1, 3] [ng/g] | concentration at 1 h [1, 3] [ng/g] | concentration at 4 h [1, 3] [ng/g] | concentration at 8 h [1, 3] [ng/g] | concentration at 24 h [1, 3] [ng/g] | bioavailability [1, 4] [%] | concentration at 0.25 h [1, 5] [ng/mL] | concentration at 1 h [1, 5] [ng/mL] | concentration at 4 h [1, 5] [ng/mL] | concentration at 8 h [1, 5] [ng/mL] | concentration at 24 h [1, 5] [ng/mL] | concentration in liver, fold above the EC50 [1] | CYP (% negative controls) 2D6 (CYP 2D6) [% negative controls] | CYP (% negative controls) 3A4 (CYP 3A4) [% negative controls] | CYP (% negative controls) 2C19 (CYP 2C19) [% negative controls] | CYP (% negative controls) 2C9 (CYP 2C9) [% negative controls] | also measured |
| --- | --- | --- | --- | --- | --- | --- | --- | --- | --- | --- | --- | --- | --- | --- | --- | --- | --- | --- | --- |
| Cn1nc(C(=O)NC2CCN(CCN3CCCCC3)CC2)c2ccc(N3CCCCCC3)nc21 [EBP1047] | 78.3 | 558 | 382 | 14000 | 2670 | 563 | 5.35 | 9 | 5.1 | 24.1 | 10.4 | 2.9 | 0 | 2-60 fold |  |  |  |  | Kp at 4 h [1, 2]: 261; Kp at 8 h [1, 2]: 182; Liver Conc (range) ([1]; rat, PO 20 mpk, over the period given): 1 to 30 µM |
| CCN1CCC(NC(=O)c2nn(C)c3nc(N4CCCCCC4)ccc23)CC1 [EBP1595] | 652 | 172 | 1900 | 12400 | 1400 | 132 | 0 | 9 | 1.6 | 96.4 | 14 | 0 | 0 | 2-32 fold |  |  |  |  | Kp at 4 h [1, 2]: 67 |
| Cn1nc(C(=O)NC2CCN(CCN3CCCC3)CC2)c2ccc(N3CCCCCC3)nc21 [EBP1597] |  |  |  |  |  |  |  |  |  |  |  |  |  | 2-18 fold |  |  |  |  | Kp at 0.25 h [1, 6]: 1670; Kp at 4 h [1, 6]: 717; Kp at 8 h [1, 6]: 582; Kp at 12 h ([1]; 40 mg/kg, rat, PO 40 mpk, 12 h, liver/plasma, read-out: L/P Ratio): 527; concentration at 0.25 h [1, 7]: 2620 ng/g; concentration at 4 h [1, 7]: 8120 ng/g; concentration at 8 h [1, 7]: 1500 ng/g; concentration at 12 h ([1]; liver, 40 mg/kg, rat, PO 40 mpk, 12 h, read-out: Liver): 1030 ng/g; liver concentration range at 12 h ([1]; liver, 40 mg/kg, rat, PO 40 mpk, over the period given, read-out: Liver Conc (range)): 2 to 18 µM; bioavailability ([1]; plasma, 40 mg/kg, rat, PO 40 mpk vs IV 1 mpk): 9%; concentration at 0.25 h [1, 8]: 1.6 ng/mL; concentration at 4 h [1, 8]: 10.3 ng/mL; concentration at 8 h [1, 8]: 2.6 ng/mL; concentration at 12 h ([1]; plasma, 40 mg/kg, rat, PO 40 mpk, 12 h, read-out: Plasma): 2.5 ng/mL; Liver Conc (range) ([1]; rat, PO 40 mpk, over the period given): 2 to 18 µM |
| CC(C)N1CCC(NC(=O)c2nn(C)c3nc(N4CCCCCC4)ccc23)CC1 [EBP1604] | 618 | 275 | 915 | 4870 | 203 | 43 | 0 | 2 | 0.8 | 17.9 | 0 | 0 | 0 | up to 6 fold |  |  |  |  | Liver Conc (range) ([1]; rat, PO 20 mpk, over the period given, 20 mg/kg): 2 to 12 µM |
| Cn1nc(C(=O)NC2CCNCC2)c2ccc(N3CCCCCC3)nc21.O=C(O)C(F)(F)F.O=C(O)C(F)(F)F [compound 697] |  |  |  |  |  |  |  |  |  |  |  |  |  |  | 80 | 110 | 78 | 92 |  |
| CCC(CC)Oc1ccc2c(C(=O)NC3CCNCC3)n[nH]c2n1 [compound 726] |  |  |  |  |  |  |  |  |  |  |  |  |  |  | 72 | 60 | 74 | 84 |  |
| Cn1nc(C(=O)NC2CCN(CCN3CCCCC3)CC2)c2ccc(N3CCCCCC3)nc21 [compound 1047] |  |  |  |  |  |  |  |  |  |  |  |  |  |  | 72 | 113 | 92 | 91 |  |
| Cn1nc(CCCN2CCCC2)c2ccc(N3CCCCCCC3)nc21 [compound 1171] |  |  |  |  |  |  |  |  |  |  |  |  |  |  | 62 | 67 | 72 | 141 |  |
